In paper PMC6263154 (Bioorganic & medicinal chemistry letters, 2018):

Experiments:
M. abscessus infection = details: mouse model of M. abscessus infection, intrapulmonary delivery; cited from earlier work
[1] = parameters: species or system mice; details: mouse, in vivo
mmpL3 = details: in both Mabs and Mtb; cited from earlier work
[2] = Cytotoxicity towards HepG2 cell line; assay type: cell-based; details: human, HepG2 cells
[3] = test system: CYP2B6, CYP2C8, CYP2C9, CYP2C19, CYP2D6, CYP3A4; test: CYP inhibition, in vitro panel of six common isoforms; assay type: biochemical; details: human
Mabs = details: for 3 days; cited from earlier work
CYP3A4 = CYP3A4 (Homo sapiens, UniProt P08684); test: CYP inhibition, CYP3A4; assay type: biochemical
Chain of CYP3A4 (P08684 whole entry): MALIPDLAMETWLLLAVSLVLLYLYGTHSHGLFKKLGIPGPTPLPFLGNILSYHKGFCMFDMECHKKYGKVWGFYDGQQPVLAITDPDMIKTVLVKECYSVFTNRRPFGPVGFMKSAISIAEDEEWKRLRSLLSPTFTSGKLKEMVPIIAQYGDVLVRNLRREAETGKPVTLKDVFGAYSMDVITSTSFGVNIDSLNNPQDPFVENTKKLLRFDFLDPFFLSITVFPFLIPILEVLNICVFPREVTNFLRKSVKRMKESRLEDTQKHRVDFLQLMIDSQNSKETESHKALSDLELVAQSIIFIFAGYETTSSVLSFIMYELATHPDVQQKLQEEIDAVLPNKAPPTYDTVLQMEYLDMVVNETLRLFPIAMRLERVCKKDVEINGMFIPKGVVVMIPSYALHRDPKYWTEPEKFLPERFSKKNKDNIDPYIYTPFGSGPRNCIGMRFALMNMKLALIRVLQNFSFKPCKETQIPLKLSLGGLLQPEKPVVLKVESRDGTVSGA

CYP2B6 = molecular target: T1, CYP2B6 (Homo sapiens, UniProt P20813); test: CYP inhibition, CYP2B6; assay type: biochemical
T1 sequence (P20813 1-491): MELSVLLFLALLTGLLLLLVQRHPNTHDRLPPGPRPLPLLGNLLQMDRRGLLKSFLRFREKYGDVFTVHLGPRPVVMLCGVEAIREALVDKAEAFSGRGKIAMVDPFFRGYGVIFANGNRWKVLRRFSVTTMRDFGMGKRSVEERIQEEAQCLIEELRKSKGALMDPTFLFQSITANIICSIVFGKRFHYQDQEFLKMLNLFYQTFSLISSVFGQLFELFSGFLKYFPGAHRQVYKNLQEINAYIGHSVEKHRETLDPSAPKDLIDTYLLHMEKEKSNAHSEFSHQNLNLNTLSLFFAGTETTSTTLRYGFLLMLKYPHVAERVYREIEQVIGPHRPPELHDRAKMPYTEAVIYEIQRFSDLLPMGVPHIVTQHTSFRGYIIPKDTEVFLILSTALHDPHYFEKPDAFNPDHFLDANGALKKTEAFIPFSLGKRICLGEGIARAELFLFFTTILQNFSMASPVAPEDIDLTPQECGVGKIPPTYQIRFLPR

[4] = test system: Mycobacterium avium complex; test: MIC against Mycobacterium avium complex; assay type: cell-based; details: MAC; listed as CRS400393

Structure (SMILES)	effect on transfer of mycolic acids to cell envelope acceptors (mmpL3)	inhibition at 10 µM (CYP3A4) [%]	inhibition at 10 µM (CYP2B6) [%]	further results
CC12CC3CC(C)(C1)CC(C(=O)Nc1nc4ccc(OC(F)(F)F)cc4s1)(C3)C2 [CRS400226]	–	–	–	in vivo efficacy (M. abscessus infection): demonstrated in vivo efficacy
CC1CC(C(=O)Nc2nc3c(F)cc(F)cc3s2)CC(C)(C)C1 (stereo not drawn) [Compound 18]	affect the transfer of mycolic acids	–	–	single dose toxicity observation [1]: All mice appeared normal with no abnormal behavior observed
CC1CC(C(=O)Nc2nc3ccc(OC(F)(F)F)cc3s2)CC(C)(C)C1 (stereo not drawn) [Compound 32]	affect the transfer of mycolic acids	–	–	IC50 [2]: > 100 µM; IC50 [3]: > 20 µM
CC12CCCC(C(=O)Nc3nc4cc(Cl)cc(Cl)c4s3)(CCC1)C2 [Compound 43]	–	≤ 50	≤ 50	time kill: effect against Mabs (Mabs): bacteriostatic; MIC against Mycobacterium avium complex [4]: 1 to 2 µg/mL
CC12CCCC(C(=O)Nc3nc4ccc(OC(F)(F)F)cc4s3)(CCC1)C2 [Compound 52]	–	≤ 50	≤ 50	–
